Data published in patent US20230203098A1, “HUMAN TRANSFERRIN RECEPTOR BINDING PEPTIDE” (priority 2020, published 2023).

Experiments:
TfR-KI mice = settings: mouse, in vivo
Protocol: hTfRNo.894-vivotag750 conjugate administration liquid (No. 894 administration liquid) : 4.8 µL of dimethyl sulfoxide (DMSO, Sigma Aldrich) was added to 6 µL of a 5 mM solution of the hTfRNo.894-vivotag750 conjugate synthesized in Example 2, 66 µL of the 20% hydroxypropyl-β-cyclodextrin solution was further added, and the mixture was mixed well. To this, 48 µL of polyethylene glycol 400 was further added and mixed to prepare a No. 894-administration liquid. […] The offspring (chimeric mice) thus obtained were determined by hair color, and individuals in which the ES cells contributed to the development of the organism at a higher rate, that is, individuals having a higher proportion of white hairs relative to their total body hairs, were selected. […] White-colored F1 mice were selected, DNA was extracted from their tail tissues and analyzed, and the mice in which the mouse transferrin receptor gene on the chromosome had been heterologously replaced with the chimeric hTfR were selected as the TfR-KI mice. […] After this, tissues for measuring fluorescence intensity (brain, heart, lung, liver, spleen, kidney, quadriceps femoris muscle, thymus, thoracic vertebrae, and femur) were collected and stored in normal saline to prevent drying. […]

hTfR-KI mice = assay: Mouse brain localization confirmation test with FITC conjugate (immunohistochemical staining, single and multiple dose); format: in vivo; settings: multiple dose test, 3.7 mg/kg every 10 minutes, 6 times
Protocol: In the same manner as in Example 5, the conjugate of the hTfR-binding special cyclic peptide No. 894 and the fluorescent substance FITC was administered to the hTfR-KI mice. The dose was adjusted to 3.7 mg/kg.
One hour after administration, the mice were anesthetized with isoflurane and subjected to a blood removal treatment by running normal saline from the left ventricle for 4 to 5 minutes. After that, the brain was collected for measuring the fluorescence intensity and stored in normal saline to prevent drying. This brain tissue was subjected to immunohistochemical staining using an anti-FITC antibody (MBL Life Science). The immunohistochemical staining in the brain tissue using the anti-FITC antibody was performed with a publicly known method and the staining was observed using a fluorescence microscope. Note that in the figure, red arrows indicate the cerebral capillaries and arrowheads indicate the Purkinje cells.
The localization of the above-mentioned conjugate in the brain tissue was confirmed by the immunohistochemical staining. Note that, in the figure, red arrows indicate the cerebral capillaries, arrowheads indicate the Purkinje cells, and yellow arrows indicate dendrites.

CC[C@H](C)[C@@H]1NC(=O)[C@H](Cc2ccc(O)cc2)NC(=O)[C@H](Cc2ccc(O)cc2)NC(=O)[C@H](CC(N)=O)NC(=O)[C@H](Cc2c[nH]c3ccccc23)NC(=O)[C@H](C(C)C)NC(=O)[C@H](Cc2ccccc2)NC(=O)[C@H](C(C)C)NC(=O)[C@H](C)NC(=O)CSC[C@@H](C(N)=O)NC(=O)[C@H](Cc2ccc(O)cc2)N(C)C(=O)[C@H](Cc2ccc(O)cc2)NC(=O)[C@H](CCCNC(=N)N)NC(=O)[C@H](CCCNC(=N)N)NC(=O)[C@H]([C@@H](C)CC)NC1=O [hTfR No. 894]
migration into the brain through the BBB (TfR-KI mice): migrated into the brain through the BBB
migration to tissues (TfR-KI mice): also migrated to each tissue, mainly muscle tissues

CC[C@H](C)[C@@H]1NC(=O)[C@H](Cc2ccc(O)cc2)NC(=O)[C@H](Cc2ccc(O)cc2)NC(=O)[C@H](CC(N)=O)NC(=O)[C@H](Cc2c[nH]c3ccccc23)NC(=O)[C@H](C(C)C)NC(=O)[C@H](Cc2ccccc2)NC(=O)[C@H](C(C)C)NC(=O)[C@H](C)NC(=O)CSC[C@@H](C(=O)NCCOCCOCCOCCOCCOCCOCCOCCOCCOCCOCCOCCOCCC(=O)N[C@@H](CCCCNC(=O)c2ccc(-c3c4ccc(=O)cc-4oc4cc(O)ccc34)c(C(=O)O)c2)C(N)=O)NC(=O)[C@H](Cc2ccc(O)cc2)N(C)C(=O)[C@H](Cc2ccc(O)cc2)NC(=O)[C@H](CCCNC(=N)N)NC(=O)[C@H](CCCNC(=N)N)NC(=O)[C@H]([C@@H](C)CC)NC1=O
localization in the brain tissue (hTfR-KI mice): reached as far as neurons such as the Purkinje cells
